Species: Rattus norvegicus
Experiment: Open TG-GATES - Regimen: Single
Assay type: toxicity, organism-based, Sprague-Dawley
Set-up: regimen Single, gender Male, age 6 weeks
Details: in vivo, po, 30 mg/kg, route gavage, dose level High; for APTT / Bas / Eos / Fbg / Hb / Ht / Lym / MCH / MCHC / MCV / Mono / Neu / PT / Plat / RBC / Ret / WBC: tissue Blood; for KIDNEY_L / KIDNEY_R / KIDNEY_TOTAL: tissue Kidney; for LIVER: tissue Liver; for A/G / ALP / ALT / AST / BUN / CRE / Ca / Cl / DBIL / GLC / IP / K / LDH / Na / PL / RALB / TBIL / TC / TG / TP / gamma-GTP: tissue Plasma

For Cn1cnc([N+](=O)[O-])c1Sc1ncnc2nc[nH]c12 [AZATHIOPRINE], the TERMINAL_BW (3 h) was 191.2 g, the APTT (3 h) was 22.3 s and the Bas (3 h) was 0%. It also gave an Eos (3 h) of 1%, a Fbg (3 h) of 297.8 mg/dL and a Hb (3 h) of 13.1 g/dL. For the same molecule, the Ht (3 h) was 39.1%, the Lym (3 h) was 71.8% and the MCH (3 h) was 21.6 pg. For the same molecule, the MCHC (3 h) was 33.5%, the MCV (3 h) was 64.6 fL and the Mono (3 h) was 1.8%. For the same molecule, the Neu (3 h) was 24.6%, the PT (3 h) was 15.5 s and the Plat (3 h) was 118.4 x10_4/uL. It also gave an RBC (3 h) of 605.8 x10_4/ul, a Ret (3 h) of 9.2% and a WBC (3 h) of 56 x10_2/uL. The KIDNEY_L (3 h) was 0.9 g, the KIDNEY_R (3 h) was 0.9 g and the KIDNEY_TOTAL (3 h) was 1.7 g. The LIVER (3 h) was 8.5 g, the A/G (3 h) was 1.2 and the ALP (3 h) was 1649.8 IU/L. The ALT (3 h) was 41.6 IU/L, the AST (3 h) was 73.2 IU/L and the BUN (3 h) was 10.6 mg/dL. The CRE (3 h) was 0.1 mg/dL, the Ca (3 h) was 10.3 mg/dL and the Cl (3 h) was 104.8 meq/L. It also gave a DBIL (3 h) of 0.004 mg/dL, a GLC (3 h) of 182.8 mg/dL and an IP (3 h) of 9 mg/dL. For the same molecule, the K (3 h) was 4 meq/L, the LDH (3 h) was 171.8 IU/L and the Na (3 h) was 143.2 meq/L. The PL (3 h) was 138.4 mg/dL, the RALB (3 h) was 3 g/dL and the TBIL (3 h) was 0.01 mg/dL. It also gave a TC (3 h) of 80.4 mg/dL, a TG (3 h) of 47.6 mg/dL and a TP (3 h) of 5.4 g/dL. It also gave a gamma-GTP (3 h) of 1 IU/L, a TERMINAL_BW (6 h) of 192.3 g and an APTT (6 h) of 21 s. For the same molecule, the Bas (6 h) was 0%, the Eos (6 h) was 0.8% and the Fbg (6 h) was 311.8 mg/dL. The Hb (6 h) was 13.2 g/dL, the Ht (6 h) was 39.6% and the Lym (6 h) was 71.4%. For the same molecule, the MCH (6 h) was 21.5 pg, the MCHC (6 h) was 33.3% and the MCV (6 h) was 64.8 fL. The Mono (6 h) was 2.2%, the Neu (6 h) was 25% and the PT (6 h) was 15.5 s. The Plat (6 h) was 120.3 x10_4/uL, the RBC (6 h) was 612.2 x10_4/ul and the Ret (6 h) was 9%. It also gave a WBC (6 h) of 54.6 x10_2/uL, a KIDNEY_L (6 h) of 0.9 g and a KIDNEY_R (6 h) of 0.9 g. It also gave a KIDNEY_TOTAL (6 h) of 1.8 g, an LIVER (6 h) of 7.9 g and an A/G (6 h) of 1.1. It also gave an ALP (6 h) of 1635.4 IU/L, an ALT (6 h) of 36.4 IU/L and an AST (6 h) of 69.8 IU/L. It also gave a BUN (6 h) of 9.8 mg/dL, a CRE (6 h) of 0.2 mg/dL and a Ca (6 h) of 10.6 mg/dL. For the same molecule, the Cl (6 h) was 104.8 meq/L, the DBIL (6 h) was 0.002 mg/dL and the GLC (6 h) was 187.4 mg/dL. The IP (6 h) was 9.1 mg/dL, the K (6 h) was 4.4 meq/L and the LDH (6 h) was 221 IU/L. It also gave a Na (6 h) of 141.2 meq/L, a PL (6 h) of 127.2 mg/dL and an RALB (6 h) of 2.9 g/dL. For the same molecule, the TBIL (6 h) was 0.008 mg/dL, the TC (6 h) was 73.4 mg/dL and the TG (6 h) was 44.6 mg/dL. It also gave a TP (6 h) of 5.5 g/dL, a gamma-GTP (6 h) of 1 IU/L and a TERMINAL_BW (9 h) of 184.1 g. The APTT (9 h) was 22 s, the Bas (9 h) was 0% and the Eos (9 h) was 0.8%. The Fbg (9 h) was 328.4 mg/dL, the Hb (9 h) was 12.7 g/dL and the Ht (9 h) was 38.7%. It also gave a Lym (9 h) of 74.4%, an MCH (9 h) of 21.3 pg and an MCHC (9 h) of 32.9%. It also gave an MCV (9 h) of 64.9 fL, a Mono (9 h) of 2.8% and a Neu (9 h) of 20.6%. The PT (9 h) was 15.5 s, the Plat (9 h) was 102.9 x10_4/uL and the RBC (9 h) was 598 x10_4/ul. The Ret (9 h) was 9.2%, the WBC (9 h) was 79 x10_2/uL and the KIDNEY_L (9 h) was 0.8 g. The KIDNEY_R (9 h) was 0.9 g, the KIDNEY_TOTAL (9 h) was 1.7 g and the LIVER (9 h) was 7.5 g. For the same molecule, the A/G (9 h) was 1.2, the ALP (9 h) was 1634.6 IU/L and the ALT (9 h) was 35.4 IU/L. The AST (9 h) was 77 IU/L, the BUN (9 h) was 11.4 mg/dL and the CRE (9 h) was 0.1 mg/dL. It also gave a Ca (9 h) of 10.5 mg/dL, a Cl (9 h) of 106 meq/L and a DBIL (9 h) of 0.002 mg/dL. For the same molecule, the GLC (9 h) was 190 mg/dL, the IP (9 h) was 9.4 mg/dL and the K (9 h) was 4.5 meq/L. For the same molecule, the LDH (9 h) was 231.8 IU/L, the Na (9 h) was 140.8 meq/L and the PL (9 h) was 140.2 mg/dL. The RALB (9 h) was 2.9 g/dL, the TBIL (9 h) was 0.01 mg/dL and the TC (9 h) was 85.8 mg/dL. The TG (9 h) was 37.2 mg/dL, the TP (9 h) was 5.4 g/dL and the gamma-GTP (9 h) was 1.2 IU/L. For the same molecule, the TERMINAL_BW (24 h) was 199.8 g, the APTT (24 h) was 19.8 s and the Bas (24 h) was 0%. It also gave an Eos (24 h) of 0.8%, a Fbg (24 h) of 345.2 mg/dL and a Hb (24 h) of 13 g/dL. It also gave a Ht (24 h) of 38.7%, a Lym (24 h) of 86% and an MCH (24 h) of 21.7 pg. For the same molecule, the MCHC (24 h) was 33.6%, the MCV (24 h) was 64.6 fL and the Mono (24 h) was 1.8%. The Neu (24 h) was 10.4%, the PT (24 h) was 15 s and the Plat (24 h) was 125.5 x10_4/uL. The RBC (24 h) was 599 x10_4/ul, the Ret (24 h) was 7.7% and the WBC (24 h) was 68.5 x10_2/uL. The KIDNEY_L (24 h) was 0.9 g, the KIDNEY_R (24 h) was 0.9 g and the KIDNEY_TOTAL (24 h) was 1.8 g. It also gave an LIVER (24 h) of 9.1 g, an A/G (24 h) of 1.2 and an ALP (24 h) of 1513.8 IU/L. The ALT (24 h) was 44.2 IU/L, the AST (24 h) was 73.6 IU/L and the BUN (24 h) was 15.4 mg/dL. The CRE (24 h) was 0.1 mg/dL, the Ca (24 h) was 11.1 mg/dL and the Cl (24 h) was 105.2 meq/L. The DBIL (24 h) was 0 mg/dL, the GLC (24 h) was 190.8 mg/dL and the IP (24 h) was 7.6 mg/dL. The K (24 h) was 4.2 meq/L, the LDH (24 h) was 210.4 IU/L and the Na (24 h) was 142 meq/L. For the same molecule, the PL (24 h) was 161.2 mg/dL, the RALB (24 h) was 3.1 g/dL and the TBIL (24 h) was 0.014 mg/dL. It also gave a TC (24 h) of 102.6 mg/dL, a TG (24 h) of 39.4 mg/dL and a TP (24 h) of 5.7 g/dL. The gamma-GTP (24 h) was 1.4 IU/L.
